Assay results published in publication PMC4393181, “The Chemopotential Effect of Annona muricata Leaves against Azoxymethane-Induced Colonic Aberrant Crypt Foci in Rats and the Apoptotic Effect of Acetogenin Annomuricin E in HT-29 Cells: A Bioassay-Guided Approach” (PLoS ONE, 2015).
In brackets after ≈: the same amount, converted by molar mass. Like-named read-outs stand apart in the source and are kept apart here.

Legend:
[1] = system: Bcl-2; test: Q-PCR gene expression analysis of Bcl-2; assay type: cell-based, human; settings: HT-29, IC50 concentration, 12 to 48 h
Description: (§1) The mRNA expression of two proteins, Bcl-2 and Bax, was quantified using real-time Q-PCR analysis as described previously with some modifications. […] The total RNA of treated cells was isolated using the RNeasy Plus Mini kit (Qiagen, Hilden, Germany) followed by the synthesis of the complementary DNA using the iScript cDNA synthesis kit (Biorad, Hercules, CA, USA). Q-PCR was performed on the StepOne PLUS real-time PCR machine (Applied Biosystems, Carlsbad, CA, USA). The β-actin housekeeping gene was used as a positive reference and was applied to normalize the target mRNA. The Q-PCR master mix was provided by Solaris Q-PCR Expression Assays (Thermo Fisher Scientific, Waltham, MA, USA) for the gene expression analysis of Bcl-2, AX-003307-00-0100; Bax, AX-003308-00-0100; and β-actin, AX-003451-00-0100.

[2] = system: HT-29 cells; test: Cell cycle assay (PI staining, flow cytometry); assay type: cell-based, human; settings: HT-29, IC50 concentration
Description: To determine the effect of annomuricin E on the cell cycle distribution, flow cytometric analysis was performed as described previously. […] After incubation, the treated HT-29 cells were harvested, washed twice with ice-cold PBS and fixed overnight at 4°C with 90% ethanol. The following day, the cells were washed and stained with propidium iodide (PI, 100 μl, 1 mg/ml). The cellular RNA was degraded using the enzyme RNAse A (200 μg/ml, Sigma). The stained cells were instantly examined using a BD FACSCanto II flow cytometer (BD Biosciences, San Jose, CA, USA) by analyzing 10,000 cells per sample. The data were processed using ModFit LT software (Verity Software House, Inc., Topsham, ME, USA).

[3] = system: HT-29 cells; test: LDH release assay; assay type: cell-based, human; settings: HT-29, 24 h, compared with 0.1% DMSO control
Description: To further confirm the cytotoxic effects of annomuricin E on HT-29 cells, the LDH release assay was performed using the Pierce LDH Cytotoxicity Assay Kit (Thermo Scientific, Pittsburgh, PA, USA) as previously described. Briefly, HT-29 cells at the exponential phase of growth were treated with different concentrations of annomuricin E and Triton X-100 (positive control) for 24 h. After the incubation, the treated HT-29 cells were exposed to the LDH reaction solution (100 μl) for 30 min. The red color intensity, representing the level of released LDH, was then measured at 490 nm using the Tecan Infinite 200 Pro (Tecan, Männedorf, Switzerland) microplate reader. The result of LDH release was calculated as a percentage of the positive control.

[4] = system: Bax; test: Q-PCR gene expression analysis of Bax; assay type: cell-based, human; settings: HT-29, IC50 concentration, 48 h, normalized to β-actin
Description: as §1

[5] = system: HT-29 cells; test: Multiple cytotoxicity assay (Cellomics Multiparameter Cytotoxicity 3 Kit); assay type: cell-based, human
Description: The simultaneous analysis of critical apoptosis markers, namely cell membrane permeability, cytochrome c leakage from the mitochondria, mitochondrial membrane potential (MMP) and total nuclear intensity, in HT-29 cells was performed using the Cellomics Multiparameter Cytotoxicity 3 Kit (Cellomics, Pittsburgh, PA, USA) as previously described in detail. […] After incubation, the treated cells were stained with a cell permeability dye (FITC), a cytochrome c dye (Cy3), a mitochondrial membrane potential dye (Cy5) and a nuclear dye (Hoechst 33342), according to the vendor’s protocol. The plates were analyzed using a Cell Reporter cytofluorimeter system (Gentix/Molecular Devices, United Kingdom).

[6] = system: Bcl-2; test: Immunofluorescence analysis of Bcl-2; assay type: cell-based, human; settings: HT-29, IC50 concentration, 12, 24 and 48 h, compared with control
Description: (§2) The perturbation in the protein expressions of Bcl-2 and Bax was investigated using immunofluorescence analysis as previously described in detail. […] After washing the cells twice with PBS, they were fixed in 4% paraformaldehyde at 25°C for 20 min prior to blocking with blocking buffer (0.03% Triton X-100/PBS and normal serum) for 1 h. The cells were then supplemented with a primary antibody solution and incubated overnight at 4°C. After incubation, the cells were treated with Bcl-2 and Bax flurochrome-conjugated secondary antibody (Santa Cruz Biotechnology, Santa Cruz, CA, USA) for 1 h. The cells were then washed twice with PBS prior to staining with DAPI. The stained cells were examined using the Cell Reporter cytofluorimeter system.

[7] = system: caspase 9; test: Caspase-Glo 9 luminescence assay; assay type: cell-based, human; settings: HT-29, IC50 concentration, 12 to 48 h, vs control
Description: (§3) A luminescence-based analysis was performed to investigate the activity of caspase 3/7 and caspase 9 using the Caspase-Glo 9 Assay and Caspase-Glo 3/7 Assay commercial kits (Promega Corporation, Fitchburg, WI, USA) as described previously. […] After incubation, 100 μl of the caspase-Glo reagent was added to each well according to the manufacturer’s protocol. Luminescence, which represents the caspase activities, was measured using a luminescence microplate reader (Tecan Infinite 200 Pro).

[8] = system: caspase 3/7; test: Caspase-Glo 3/7 luminescence assay; assay type: cell-based, human; settings: HT-29, IC50 concentration, 12 to 48 h, vs control
Description: as §3

[9] = system: CCD841 (normal human colon epithelial cells); test: MTT assay on CCD841 cells; assay type: cell-based; settings: mean ± SEM of three experiments
Description: (§4) CCD841 (normal human colon epithelial cells) and HT-29 (human colon cancer cells) were purchased from the American Type Cell Collection (ATCC, Manassas, VA, USA). The cells were maintained at 37°C in a humidified atmosphere of 5% CO2. The culture medium consisted of Dulbecco’s Modified Eagles medium (Sigma) that was supplemented with 10% Fetal Bovine Serum (PAA Laboratories, Pasching, […]), 100 μg/ml streptomycin (Sigma) and 100 U/ml penicillin (Sigma). The untreated medium containing 0.1% vehicle DMSO was applied as the negative control for all of the assays in the in vitro study.
(§5) Cell viability analysis was performed using the MTT assay as described previously. In brief, cells (5 × 10^4 cells/ml) at the exponential phase of growth were seeded in a 96-well plate and treated with serial concentrations of the tested agent (0.62, 1.25, 2.5, 5, 10, 20, 40 and 80 μg/ml) for 12, 24 and 48 h. 5-FU, a standard anticancer drug, was used as a positive control in this assay. After incubation, 20 μl of the MTT solution (5.0 mg/ml, Sigma) was loaded into each well, and the cells were further incubated at 37°C for 4 h. DMSO (150 μl) was then used to dissolve the formazan crystals. The cytotoxicity against cancer and normal cells was measured at the absorbance of 570 nm using an ELISA reader (Asys UVM340, Eugendorf, Austria). The data were then processed, and the antiproliferative potential of the tested agents was expressed as IC50 values, the concentration that causes a 50% inhibition of cell growth.

[10] = system: HT-29 cells; test: Annexin V-FITC/PI detection of early and late apoptosis; assay type: cell-based, human; settings: HT-29, IC50 concentration
Description: Flow cytometric analysis was performed to quantify early and late apoptosis in treated HT-29 cells using the commercial BD Pharmingen Annexin V-FITC Apoptosis Detection kit (APOAlert Annexin V; Clontech, Mountain View, CA, USA). […] After incubation, the treated cells were harvested, washed twice with PBS and suspended in the Annexin-V binding buffer. The cells were then supplemented with Annexin-V-FITC and PI, according to the vendor’s instructions. The stained cells were examined using a BD FACSCanto II flow cytometer. Early and late apoptotic cells and necrotic cells were quantitatively detected using a quadrant statistics analysis.

[11] = system: HT-29 (human colon cancer cells); test: MTT assay on HT-29 cells; assay type: cell-based; settings: mean ± SEM of three experiments
Description: as §4, §5

[12] = system: Bax; test: Immunofluorescence analysis of Bax; assay type: cell-based, human; settings: HT-29, IC50 concentration, 48 h
Description: as §2

[13] = system: Bcl-2; test: Immunohistochemistry of colon tissue sections for Bcl-2; assay type: in vivo, Sprague Dawley rats; settings: AOM-induced rats; EEAML both doses (250 and 500 mg/kg), 5-FU 35 mg/kg
Description: (§6) Immunohistochemical evaluation of proliferating cell nuclear antigen (PCNA), Bax and Bcl-2 proteins was performed on deparaffinized tissue sections using the commercial Dako ARK Peroxidase kit (DAKO, Carpinteria, CA, USA) according to the vendor’s instructions. In brief, the antigen retrieval process of tissue sections was performed using 10 mM citrate buffer (pH 6.0); the tissue sections were then washed with PBS and blocked with peroxidase blocking buffer. Next, the tissue sections were incubated with diluted mouse PCNA (1:100, Cat: ab2426), Bax (1:100, Cat: ab7977) and Bcl-2 (1:100, Cat: ab7973) antibodies (Abcam, Cambridge, MA, USA) for 15 min. All of the slides were then incubated with the appropriate amount of streptavidin-HRP for 30 min at room temperature. The slides were developed with a diaminobenzidine (DAB) substrate-chromogen system and were counterstained in hematoxylin. The measurement of the PCNA labeling index (PI) was calculated using the formula below.

[14] = system: PCNA; test: Immunohistochemistry of colon tissue sections, PCNA labeling index; assay type: in vivo, Sprague Dawley rats; settings: 5-FU 35 mg/kg, colon tissue of AOM-induced rats (cancer control PI 81%, negative control 4%)
Description: as §6
PI = number of positive cells/total number of epithelial cells ×100

[15] = system: AOM-induced colonic ACF; test: Counting of AOM-induced colonic aberrant crypt foci (methylene blue staining); assay type: in vivo, Sprague Dawley rats; settings: group E
Description: The experiment was performed as previously described in detail. Thirty male rats (n = 6 per group) in five groups (negative control, cancer control, low dose of EEAML, high dose of EEAML and treatment control) were subcutaneously injected once a week for two consecutive weeks according to the “Induction” column in Table 1. Then, all of the rodents were orally fed once a day for two months based on the experimental design (Table 1), except for the treatment control group, which was intra-peritoneally injected with 35 mg/kg of 5-FU (Sigma, St. Louis, MO, USA) for five consecutive days. The condition of the animals was observed every morning throughout the experimental period.
To determine the intensity of colonic ACF formation after 10 weeks of injection with AOM, ACF counting was performed as previously described in detail. In brief, rats were anesthetized with a high dose of ketamine (30 mg/kg, 100 mg/mL) and xylazine (3 mg/kg, 100 mg/mL) under aseptic conditions. The excised colon was flushed with phosphate buffered saline (PBS, Sigma), opened longitudinally and fixed flat between filter papers overnight at 4°C using 10% buffered formalin. Equal lengths of the proximal and distal portions of the fixed colons were stained with 0.5% methylene blue solution. After washing away the excess stain, topographic analysis was performed under a light microscope (Nikon, Tokyo, Japan) to score the total number of ACF, as well as the number of crypts per focus.

[16] = system: Bax; test: Immunohistochemistry of colon tissue sections for Bax; assay type: in vivo, Sprague Dawley rats; settings: AOM-induced rats; EEAML both doses (250 and 500 mg/kg), 5-FU 35 mg/kg
Description: as §6

[17] = 5-FU 35 mg/kg intra-peritoneally for five consecutive days, AOM-induced rats

## annomuricin E
[1]
  Bcl-2 mRNA expression: time-dependently reduced
[2]; 24 h
  Percentage of cells arrested at the G1 phase: 89.65%
[2]; 48 h
  Percentage of cells arrested at the G1 phase: 94.60%
[3]
  Lowest concentration with significant LDH leakage: 4 µg/mL
[4]
  Bax mRNA expression, increase relative to control: approximately 5 fold
[5]; HT-29, IC50 concentration, 12, 24 and 48 h
  Total nuclear intensity: significantly elevated
[5]; HT-29, IC50 concentration, 12 h
  Mitochondrial membrane potential (MMP): significant collapse
[5]; HT-29, IC50 concentration, from 12 h, time-dependent
  Cytochrome c leakage from the mitochondria: increase in cytochrome c leakage
[5]; HT-29, IC50 concentration, only 24 and 48 h
  Cell membrane permeability: significantly increased
[6]
  Bcl-2 protein expression: significantly and dose-dependently reduced
[7]
  Caspase 9 activity: significantly elevated
[8]
  Caspase 3/7 activity: significantly elevated
[9]; CCD841, 12 h
  IC50: 64.32 ± 3.76 µg/mL
[9]; CCD841, 24 h
  IC50: 47.10 ± 0.47 µg/mL
[9]; CCD841, 48 h
  IC50: 32.51 ± 1.18 µg/mL
[10]; 12 h (control 0.5%)
  Percentage of late apoptotic cells (Annexin V+/PI+): 6.9%
[10]; 12 h (control 3.6%)
  Percentage of early apoptotic cells (Annexin V+/PI-): 13.9%
[10]; 24 h (peak)
  Percentage of early apoptotic cells (Annexin V+/PI-): 27.3%
  Percentage of late apoptotic cells (Annexin V+/PI+): 13.6%
[11]; HT-29, 12 h
  IC50: 5.72 ± 0.41 µg/mL
[11]; HT-29, 24 h
  IC50: 3.49 ± 0.22 µg/mL
[11]; HT-29, 48 h
  IC50: 1.62 ± 0.24 µg/mL
[12]
  Bax protein expression (FITC fluorescent intensity), increase relative to control: approximately 10 fold

## O=c1[nH]cc(F)c(=O)[nH]1 [5-FU, 5-fluorouracil]
[13]
  Bcl-2 expression in colon tissues: down-regulation
[14]
  PCNA labeling index (PI): 24%
[15]; [17]
  No. of crypts per ACF: 1 crypt: 12 ± 0.26
  No. of crypts per ACF: 2 crypt: 6 ± 0.45
  No. of crypts per ACF: 3 crypt: 7 ± 0.78
  No. of crypts per ACF: 4 crypt and more: 4 ± 0.18
  Total ACF: 29 ± 1.40
[15]; 5-FU 35 mg/kg intra-peritoneally, compared with cancer control
  Inhibition of ACF formation: 79.5%
[9]; Homo sapiens, CCD-841, CCD841, 12 h, read-out: IC50
  IC50: 58.5 ± 2.09 µg/mL (≈ 450 µM)
[9]; Homo sapiens, CCD-841, CCD841, 24 h, read-out: IC50
  IC50: 44.4 ± 2.25 µg/mL (≈ 341 µM)
[9]; Homo sapiens, CCD-841, CCD841, 48 h, read-out: IC50
  IC50: 36.3 ± 0.43 µg/mL (≈ 279 µM)
[16]
  Bax expression in colon tissues: up-regulation
[11]; Homo sapiens, HT-29, 12 h, read-out: IC50
  IC50: 4.85 ± 0.38 µg/mL (≈ 37.3 µM)
[11]; Homo sapiens, HT-29, 24 h, read-out: IC50
  IC50: 2.96 ± 0.43 µg/mL (≈ 22.8 µM)
[11]; Homo sapiens, HT-29, 48 h, read-out: IC50
  IC50: 1.5 ± 0.17 µg/mL (≈ 11.5 µM)
